Results: patent US20080280862A1, “Methods, compositions, and kits for the treatment of pain” (priority 2007, published 2008)

Columns and labels:
[1] = system: acetic acid-induced pain model in mice; assay: Acetic acid pain model, writhes; type: in vivo, ICR mice
Protocol: The acetic acid is a reliable fast model for noxious/visceral pain usually used for screening potential drug candidates for their analgesic activity. The effects of test article combinations on pain generation are assayed using the acetic acid-induced pain model in mice. Adult male ICR mice are administered study drugs intraperitoneally (vehicle, TCA, steroid or TCA/Steroid test article combinations) once daily for 2 days (day −2 and day −1) and 30 minutes prior to the acetic acid injection on day 0 (time=0). […] To elicit a pain response, dilute acetic acid (10 ml/kg of 0.6% solution) is injected intraperitoneally into the abdomen. The animal is placed in an observation chamber, and 5 minutes after acetic acid administration, the number of writhes is counted and recorded over a five minute period by a blinded observer. A writhe is considered as a contraction of the abdominal muscles accompanied by an elongation of the body and extension of the hind limb. Results are expressed as number of writhes.

[2] = system: formalin-induced pain model in rats; assay: Formalin pain model, nociceptive behaviors; type: in vivo, Sprague-Dawley rats; conditions: Experiment One, amitriptyline
Protocol: The formalin model is a fast, reliable model used to assess potential analgesics ability to block inflammatory pain. The analgesic effects of test article combinations on pain generation are assayed using the formalin-induced pain model in rats. Adult male Sprague-Dawley rats are administered intraperitoneally study drugs (vehicle, TCA, steroid or TCA/Steroid test article combinations) once daily for 2 days (day −2 and day −1) and 30 minutes prior to the formalin injection day on day 0 (time=0). […] To elicit a pain response, dilute formalin (2% in saline) is injected under the skin of the plantar surface of the right hindpaw. The animal is placed in an observation chamber. The pain response is a characteristic biphasic response pattern of nociceptive behaviors (lifting, licking, and biting of the injected paw). Two distinct periods of nociceptive behaviors/activity are observed and recorded: an early phase (phase I) lasting the first 5-10 min and a late phase (phase II) lasting 20-40 min after the injection of formalin. One hour of data is collected (time spent displaying pain behavior) by a blinded observer using a stopwatch. Results are expressed as the number of pain behaviors per 5 minute periods (Table 8 and Table 9).

CN(C)CCC=C1c2ccccc2CCc2ccccc21 [Amitriptyline]
Mean # of writhes per 5 minutes ± SEM ([1]; 1 mg/kg ip): 8.71 ± 2.44 | Mean # of writhes per 5 minutes ± SEM ([1]; 3 mg/kg ip): 11.62 ± 2.94 | Mean # of writhes per 5 minutes ± SEM ([1]; 5 mg/kg ip): 4.50 ± 2.04 | Mean # of writhes per 5 minutes ± SEM ([1]; 10 mg/kg ip): 0.79 ± 0.79 | Mean number of behaviors per 5 minute block ([2]; 1 mg/kg, 5 minutes): 233.0 ± 10.0 | Mean number of behaviors per 5 minute block ([2]; 1 mg/kg, 10 minutes): 52.0 ± 23 | Mean number of behaviors per 5 minute block ([2]; 1 mg/kg, 15 minutes): 84.0 ± 28.0 | Mean number of behaviors per 5 minute block ([2]; 1 mg/kg, 20 minutes): 49.0 ± 39.0 | Mean number of behaviors per 5 minute block ([2]; 1 mg/kg, 25 minutes): 228.0 ± 31.0 | Mean number of behaviors per 5 minute block ([2]; 1 mg/kg, 30 minutes): 244.0 ± 19.0 | Mean number of behaviors per 5 minute block ([2]; 1 mg/kg, 35 minutes): 240.0 ± 17.0 | Mean number of behaviors per 5 minute block ([2]; 1 mg/kg, 40 minutes): 214.0 ± 27.0 | Mean number of behaviors per 5 minute block ([2]; 1 mg/kg, 45 minutes): 167.0 ± 31.0 | Mean number of behaviors per 5 minute block ([2]; 1 mg/kg, 50 minutes): 63.0 ± 23.0 | Mean number of behaviors per 5 minute block ([2]; 1 mg/kg, 55 minutes): 39.0 ± 21.0 | Mean number of behaviors per 5 minute block ([2]; 1 mg/kg, 60 minutes): 28.0 ± 23.0 | Mean number of behaviors per 5 minute block ([2]; 3 mg/kg, 5 minutes): 206.0 ± 16.2 | Mean number of behaviors per 5 minute block ([2]; 3 mg/kg, 10 minutes): 59.0 ± 23.2 | Mean number of behaviors per 5 minute block ([2]; 3 mg/kg, 15 minutes): 64.0 ± 21.6 | Mean number of behaviors per 5 minute block ([2]; 3 mg/kg, 20 minutes): 166.0 ± 36.7 | Mean number of behaviors per 5 minute block ([2]; 3 mg/kg, 25 minutes): 229.0 ± 29.4 | Mean number of behaviors per 5 minute block ([2]; 3 mg/kg, 30 minutes): 242.0 ± 27.6 | Mean number of behaviors per 5 minute block ([2]; 3 mg/kg, 35 minutes): 210.0 ± 35.9 | Mean number of behaviors per 5 minute block ([2]; 3 mg/kg, 40 minutes): 242.0 ± 30.3 | Mean number of behaviors per 5 minute block ([2]; 3 mg/kg, 45 minutes): 174.0 ± 36.0 | Mean number of behaviors per 5 minute block ([2]; 3 mg/kg, 50 minutes): 119.0 ± 45.0 | Mean number of behaviors per 5 minute block ([2]; 3 mg/kg, 55 minutes): 73.0 ± 36.6 | Mean number of behaviors per 5 minute block ([2]; 3 mg/kg, 60 minutes): 47.0 ± 26.9 | Mean number of behaviors per 5 minute block ([2]; 10 mg/kg, 5 minutes): 217.0 ± 18.1 | Mean number of behaviors per 5 minute block ([2]; 10 mg/kg, 10 minutes): 16.0 ± 8.8 | Mean number of behaviors per 5 minute block ([2]; 10 mg/kg, 15 minutes): 45.0 ± 24.1 | Mean number of behaviors per 5 minute block ([2]; 10 mg/kg, 20 minutes): 84.0 ± 39.0 | Mean number of behaviors per 5 minute block ([2]; 10 mg/kg, 25 minutes): 128.0 ± 41.0 | Mean number of behaviors per 5 minute block ([2]; 10 mg/kg, 30 minutes): 151.0 ± 40.9 | Mean number of behaviors per 5 minute block ([2]; 10 mg/kg, 35 minutes): 152.0 ± 41.1 | Mean number of behaviors per 5 minute block ([2]; 10 mg/kg, 40 minutes): 138.0 ± 39.4 | Mean number of behaviors per 5 minute block ([2]; 10 mg/kg, 45 minutes): 67.0 ± 26.7 | Mean number of behaviors per 5 minute block ([2]; 10 mg/kg, 50 minutes): 70.0 ± 27.8 | Mean number of behaviors per 5 minute block ([2]; 10 mg/kg, 55 minutes): 42.0 ± 13.8 | Mean number of behaviors per 5 minute block ([2]; 10 mg/kg, 60 minutes): 45.0 ± 25.2 | Mean number of behaviors per 5 minute block ([2]; 20 mg/kg, 5 minutes): 168.0 ± 24.3 | Mean number of behaviors per 5 minute block ([2]; 20 mg/kg, 10 minutes): 41.0 ± 22.4 | Mean number of behaviors per 5 minute block ([2]; 20 mg/kg, 15 minutes): 1.0 ± 0.9 | Mean number of behaviors per 5 minute block ([2]; 20 mg/kg, 20 minutes): 13.0 ± 10.2 | Mean number of behaviors per 5 minute block ([2]; 20 mg/kg, 25 minutes): 32.0 ± 13.7 | Mean number of behaviors per 5 minute block ([2]; 20 mg/kg, 30 minutes): 81.0 ± 34.3 | Mean number of behaviors per 5 minute block ([2]; 20 mg/kg, 35 minutes): 93.0 ± 41.3 | Mean number of behaviors per 5 minute block ([2]; 20 mg/kg, 40 minutes): 85.0 ± 37.2 | Mean number of behaviors per 5 minute block ([2]; 20 mg/kg, 45 minutes): 99.0 ± 34.0 | Mean number of behaviors per 5 minute block ([2]; 20 mg/kg, 50 minutes): 82.0 ± 33.8 | Mean number of behaviors per 5 minute block ([2]; 20 mg/kg, 55 minutes): 66.0 ± 36.8 | Mean number of behaviors per 5 minute block ([2]; 20 mg/kg, 60 minutes): 59.0 ± 31.1
